Laboratory results from patent US11420962B2, “Indene derivatives useful in treating pain and inflammation” (TARO PHARMACEUTICALS INC., priority 2018, dated 2022).

Columns and labels:
rats (male, Wistar) = assay: Rat monosodium iodoacetate-induced osteoarthritis; assay type: in vivo; details: for reduction difference in weight bearing as compared to the vehicle: PO, QD
Experimental: Representative compounds of the invention (i.e., test compounds) were administered to rats (male, Wistar) PO, QD, at 3 or 30 mg/kg, starting on Day 0 through to Day 21 of the study. Osteoarthritis was modeled by intra-articular injection of 3 mg of monosodium iodoacetate (MIA) in the right knee. Knee swelling, paw withdrawal threshold (mechanical allodynia) and the difference in weight bearing were measured on Day 0 (pre-induction) and on Days 3, 7, 14 and 21 post-MIA injection. Tramadol was used as a reference standard.

[1] = test system: Rats (male, Sprague-Dawley); assay: Rat carrageenan-induced hyperalgesia and paw edema; assay type: in vivo; details: 30 mg/kg, administered at the time of, or 1 h after challenge
Experimental: Representative compounds of the invention (i.e., test compounds) were administered PO, QD for 3 days prior to carrageenan injection, once at 1 h prior to carrageen, or at 5 min or 1 h post-challenge to rats (male, Sprague-Dawley). Rats received either an intraplantar injection of saline (sham) or carrageen (0.1 mL of a 2% solution [w/v]) in the right hind paw. Mechanical hyperalgesia (using an analgesymeter) and paw volume (using a digital plethysmometer) were measured at baseline (0 hr), 2, 4 and 6 h post carrageenan injection for all the animals. Celecoxib, given 1 h prior to carrageen challenge, was used as a reference standard.

[2] = test system: Rats (male, Sprague-Dawley); assay: Spinal nerve ligation (neuropathic pain); assay type: in vivo
Description: Rats (male, Sprague-Dawley) were anaesthetized and placed in a prone position and the left paraspinal muscles were separated from the spinous processes at the L6-S2 levels. The L6 transverse process was carefully removed to visually identify the L4-L6 spinal nerves. The left L5 spinal nerves were isolated and tightly ligated with 6-0 silk thread. The skin was sutured to close the open tissue and animals were allowed to recover for 1 week before pain assessment. Basal readings for mechanical allodynia and thermal hyperalgesia were performed using a dynamic plantar aesthesiometer and plantar test surface, respectively, before surgery. On Day 7 following surgery, mechanical allodynia and thermal hyperalgesia were assessed and animals were randomized into treatment groups based on these baseline readings. […] Thermal hyperalgesia and mechanical allodynia were tested at 0, 60 and 120 minutes post administration of compounds on Days 7 and 14.

[3] = Metabolism by human liver microsomes; assay type: in vitro ADME; details: Table 8; 10 µM, in the presence of NADPH, 1 mg/mL protein
Outline: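 Compound at 10 μM preincubated 10 min at 37 °C with human liver microsomes (1 mg/mL protein), 100 mM Tris HCl pH 7.5; started with 1 mM NADPH, run 60 min. Percent remaining at 60 min versus 0-time by LC-MS/MS analyte/internal-standard ratio, scored in bands.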

- Scoring (% of drug remaining after 60 minutes, PDR60) [3]: B (a PDR^60 of 61 to 80%)
SMILES: C=C1CC[C@H]2[C@H](CN)[C@@H]([C@@]3(C)Cc4cn[nH]c4C[C@@H]3CO)CC[C@]12C [Ia-1, ((5R,6S)-5-((3aS,4R,5S,7aS)-4-(aminomethyl)-7a-methyl-1-methyleneoctahydro-1H-inden-5-yl)-5-methyl-4,5,6,7-tetrahydro-1H-indazol-6-yl)methanol]
- reduction difference in weight bearing as compared to the vehicle (rats (male, Wistar); 3.0 mg/kg dose): 50%
- reduction difference in weight bearing as compared to the vehicle (rats (male, Wistar); 30 mg/kg): 57%
- reduction in knee diameter as compared to the vehicle (rats (male, Wistar); Day 3, 3.0 mg/kg): 23%
- reduction in knee diameter as compared to the vehicle (rats (male, Wistar); Day 3, 30 mg/kg): 43%
- average increase in the paw withdrawal threshold as compared to the vehicle [1]: 41%
- overall increase in paw withdrawal threshold as compared to the vehicle ([2]; 3 mg/kg): 48%
- overall increase in paw withdrawal threshold as compared to the vehicle ([2]; 10 mg/kg): 62%
- overall increase in paw withdrawal threshold as compared to the vehicle ([2]; 30 mg/kg): 82%
